Measured values reported in ChEMBL document CHEMBL1134035, “Novel 5,5-disubstitutedpyrimidine-2,4,6-triones as selective MMP inhibitors” (Bioorg Med Chem Lett, 2001).

Key:
[1] = molecular target: 72 kDa type IV collagenase (Homo sapiens, UniProt P08253); assay: Inhibition of Gelatinase A, matrix metalloprotease-2
[2] = molecular target: T1, Matrilysin (Homo sapiens, UniProt P09237); assay: Inhibition of matrilysin, Matrix metalloprotease-7
T1 sequence (P09237 whole entry): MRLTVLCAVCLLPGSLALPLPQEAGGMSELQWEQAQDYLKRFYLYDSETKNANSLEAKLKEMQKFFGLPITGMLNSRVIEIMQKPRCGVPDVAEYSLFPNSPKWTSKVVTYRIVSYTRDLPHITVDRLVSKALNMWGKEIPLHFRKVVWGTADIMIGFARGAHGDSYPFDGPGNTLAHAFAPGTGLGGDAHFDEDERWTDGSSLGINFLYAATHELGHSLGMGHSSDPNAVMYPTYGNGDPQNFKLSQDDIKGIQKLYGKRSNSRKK

[3] = molecular target: Matrix metalloproteinase-9 (Homo sapiens, UniProt P14780); assay: Inhibition of Gelatinase B, matrix metalloprotease-9
Chain of Matrix metalloproteinase-9 (P14780 whole entry): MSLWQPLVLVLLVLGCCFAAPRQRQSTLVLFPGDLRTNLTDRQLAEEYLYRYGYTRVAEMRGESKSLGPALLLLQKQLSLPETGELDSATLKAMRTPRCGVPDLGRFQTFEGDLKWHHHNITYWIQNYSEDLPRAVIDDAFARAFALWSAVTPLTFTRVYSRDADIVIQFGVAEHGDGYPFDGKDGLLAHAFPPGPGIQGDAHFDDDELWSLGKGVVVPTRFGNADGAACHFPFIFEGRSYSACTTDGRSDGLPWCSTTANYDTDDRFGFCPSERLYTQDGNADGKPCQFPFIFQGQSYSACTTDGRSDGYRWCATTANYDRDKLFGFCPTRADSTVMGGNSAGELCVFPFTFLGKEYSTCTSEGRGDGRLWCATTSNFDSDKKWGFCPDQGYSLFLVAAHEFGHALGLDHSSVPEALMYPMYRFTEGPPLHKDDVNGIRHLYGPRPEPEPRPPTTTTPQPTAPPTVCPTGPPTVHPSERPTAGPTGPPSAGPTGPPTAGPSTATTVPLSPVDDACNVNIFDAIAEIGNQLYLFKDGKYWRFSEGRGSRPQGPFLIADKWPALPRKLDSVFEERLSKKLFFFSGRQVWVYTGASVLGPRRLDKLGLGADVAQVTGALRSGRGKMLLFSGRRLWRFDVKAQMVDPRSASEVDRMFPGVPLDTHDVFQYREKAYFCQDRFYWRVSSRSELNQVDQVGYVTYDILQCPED

[4] = molecular target: T2, Interstitial collagenase (Homo sapiens, UniProt P03956); assay: Inhibition of Matrix metalloprotease-1
T2 sequence (P03956 whole entry): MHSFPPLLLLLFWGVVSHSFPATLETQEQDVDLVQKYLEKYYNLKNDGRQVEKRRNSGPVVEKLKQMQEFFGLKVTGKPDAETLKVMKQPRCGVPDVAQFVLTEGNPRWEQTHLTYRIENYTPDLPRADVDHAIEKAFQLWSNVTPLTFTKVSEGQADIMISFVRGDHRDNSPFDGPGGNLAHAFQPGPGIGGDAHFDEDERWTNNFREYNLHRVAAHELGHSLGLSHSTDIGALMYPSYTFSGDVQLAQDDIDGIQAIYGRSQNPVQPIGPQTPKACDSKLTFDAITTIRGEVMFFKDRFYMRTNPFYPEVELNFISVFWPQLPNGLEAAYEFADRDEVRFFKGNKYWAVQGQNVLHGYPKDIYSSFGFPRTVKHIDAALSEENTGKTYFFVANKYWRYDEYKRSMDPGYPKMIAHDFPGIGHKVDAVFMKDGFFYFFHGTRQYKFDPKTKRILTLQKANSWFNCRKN

[5] = molecular target: Neutrophil collagenase (Homo sapiens, UniProt P22894); assay: Inhibition of human neutrophil collagenase-I, Matrix metalloprotease-8
Chain of Neutrophil collagenase (P22894 whole entry): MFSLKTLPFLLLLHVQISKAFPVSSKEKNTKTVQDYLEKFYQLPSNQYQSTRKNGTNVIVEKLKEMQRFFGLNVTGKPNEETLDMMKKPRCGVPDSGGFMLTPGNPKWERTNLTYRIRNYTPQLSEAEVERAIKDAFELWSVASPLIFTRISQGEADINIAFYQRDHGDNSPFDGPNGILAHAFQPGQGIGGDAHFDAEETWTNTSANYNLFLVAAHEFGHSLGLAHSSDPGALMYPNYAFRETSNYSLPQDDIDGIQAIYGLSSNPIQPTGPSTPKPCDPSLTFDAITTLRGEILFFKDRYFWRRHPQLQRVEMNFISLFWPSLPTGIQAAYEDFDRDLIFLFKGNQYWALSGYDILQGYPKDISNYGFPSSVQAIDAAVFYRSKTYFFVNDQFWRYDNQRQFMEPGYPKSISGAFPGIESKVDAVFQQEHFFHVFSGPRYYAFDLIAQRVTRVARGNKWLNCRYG

[6] = molecular target: Stromelysin-1 (Homo sapiens, UniProt P08254); assay: Inhibition of Stromelysin, matrix metalloprotease-3
Chain of Stromelysin-1 (P08254 whole entry): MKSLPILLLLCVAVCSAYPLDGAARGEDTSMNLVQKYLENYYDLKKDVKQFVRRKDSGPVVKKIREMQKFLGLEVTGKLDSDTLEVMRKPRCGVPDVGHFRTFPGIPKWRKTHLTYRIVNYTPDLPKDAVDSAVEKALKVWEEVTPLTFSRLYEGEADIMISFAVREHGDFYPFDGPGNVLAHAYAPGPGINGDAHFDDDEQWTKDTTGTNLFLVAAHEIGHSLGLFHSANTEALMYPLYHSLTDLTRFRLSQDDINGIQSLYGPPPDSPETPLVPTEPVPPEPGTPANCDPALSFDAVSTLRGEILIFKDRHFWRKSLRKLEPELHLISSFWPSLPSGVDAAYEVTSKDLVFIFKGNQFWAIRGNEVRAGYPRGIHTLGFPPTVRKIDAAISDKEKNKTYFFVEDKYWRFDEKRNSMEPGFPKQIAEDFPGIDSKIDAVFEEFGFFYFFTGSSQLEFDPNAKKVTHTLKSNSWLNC

Chain of 72 kDa type IV collagenase (P08253 whole entry): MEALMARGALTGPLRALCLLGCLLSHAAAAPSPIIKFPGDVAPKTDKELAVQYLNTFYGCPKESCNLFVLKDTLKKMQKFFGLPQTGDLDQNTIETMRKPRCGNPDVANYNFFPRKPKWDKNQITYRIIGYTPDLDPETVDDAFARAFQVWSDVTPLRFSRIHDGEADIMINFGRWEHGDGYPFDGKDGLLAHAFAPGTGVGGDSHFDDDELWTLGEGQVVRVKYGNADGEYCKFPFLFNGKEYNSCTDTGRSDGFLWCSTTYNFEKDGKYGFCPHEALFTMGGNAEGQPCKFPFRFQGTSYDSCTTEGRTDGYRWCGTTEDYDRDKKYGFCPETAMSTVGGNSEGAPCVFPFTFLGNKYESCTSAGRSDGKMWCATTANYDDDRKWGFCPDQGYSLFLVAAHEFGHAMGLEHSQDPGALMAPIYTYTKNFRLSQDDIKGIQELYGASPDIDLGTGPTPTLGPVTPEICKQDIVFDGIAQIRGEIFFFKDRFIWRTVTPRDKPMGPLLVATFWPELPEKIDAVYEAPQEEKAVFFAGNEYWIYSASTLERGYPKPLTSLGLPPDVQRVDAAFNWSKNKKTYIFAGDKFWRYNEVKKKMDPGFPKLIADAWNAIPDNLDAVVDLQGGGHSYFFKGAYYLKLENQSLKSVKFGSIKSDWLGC

Row | Structure (SMILES) | IC50 [1] | IC50 [2] | IC50 [3] | IC50 [4] | IC50 [5] | IC50 [6]
1 | CCCCCCC1(c2ccc(Oc3ccccc3)cc2)C(=O)NC(=O)NC1=O | 21 nM | > 50000 nM | 18 nM | > 2000 nM | 130 nM | 2000 nM
2 | O=C1NC(=O)C(c2ccc(Oc3ccccc3)cc2)C(=O)N1 | 9000 nM | > 50000 nM | 14000 nM | > 2000 nM |  | 
3 | CC1(c2ccc(Oc3ccccc3)cc2)C(=O)NC(=O)NC1=O | 81 nM | > 50000 nM |  | > 2000 nM | 81 nM | 2000 nM
4 | CCCCCCCCOc1ccc(CC2(C)C(=O)NC(=O)NC2=O)cc1 | 530 nM | > 50000 nM | 164 nM | > 2000 nM |  | 1000 nM
5 | CCCCCCC1(c2ccccc2)C(=O)NC(=O)NC1=O | 1300 nM | > 50000 nM | 330 nM | > 2000 nM |  | 30000 nM
6 | CCCCCCC1(c2ccc(-c3ccccc3)cc2)C(=O)NC(=S)NC1=O | 13000 nM | > 50000 nM | 12000 nM | > 2000 nM |  | 
7 | CCCCCCC1(c2ccc(-c3ccccc3)cc2)C(=O)NC(=O)NC1=O | 868 nM | > 50000 nM | 863 nM | > 2000 nM |  | 
8 | CCC1(c2ccc(-c3ccccc3)cc2)C(=O)NC(=O)NC1=O | 898 nM | > 50000 nM | 696 nM | > 2000 nM |  | 9000 nM
9 | O=C1NC(=O)C(CCO)(c2ccc(Oc3ccccc3)cc2)C(=O)N1 |  | > 50000 nM |  | > 2000 nM |  | 
10 | O=C1NC(=O)C(COCc2ccccc2)(c2ccc(Oc3ccccc3)cc2)C(=O)N1 | 19 nM | > 50000 nM | 17 nM | > 2000 nM |  | 930 nM
11 | CN1C(=O)NC(=O)C(C)(c2ccc(Oc3ccccc3)cc2)C1=O (stereo not drawn) | > 50000 nM | > 50000 nM | > 50000 nM | > 2000 nM |  | 
12 | CC1(c2ccccc2)C(=O)NC(=O)NC1=O | 50000 nM | > 50000 nM | 11000 nM | > 2000 nM |  | 
